From patent US20240091242A1, “LIPIDS THAT REDUCE LUNG DAMAGE, IMPROVE PULMONARY FUNCTION AND DECREASE PRO-INFLAMMATORY CYTOKINES” (Signpath Pharma, Inc., priority 2021, published 2024)

Experiment: Toxicity (non-toxic dose)
Settings: in vivo

CCCCCCCCCCCCCC(=O)OCC(COP(=O)([O-])OCC(COC(=O)CCC)OC(=O)CCC)OC(=O)CCCCCCCCCCCCC.CCCCCCCCCCCCCC(=O)OCC(COP(=O)([O-])OCC(COC(=O)CCC)OC(=O)CCC)OC(=O)CCCCCCCCCCCCC.[Mg+2] (stereo not shown) [SPPCT-800]
non-toxic dose: up to 800 mg/kg per day
